Measurements taken from PubChem BioAssay (NCI).
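Tested at 5 concentrations; 48 h exposure; 96-well plates; endpoints linearly interpolated, else capped at highest concentration. The concentration for 50% growth inhibition is given as GI50. TGI denotes the concentration required for complete inhibition of growth.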

Columns and labels:
Assay in all cases: DTP human tumour cell line panel, 48 h; in the data active means GI50 below about 0.43 µM; inactive means the rest
[1] = tested on: 786-0 renal
[2] = tested on: A498 renal
[3] = tested on: A549 NSCLC
[4] = tested on: ACHN renal
[5] = tested on: BT-549 breast
[6] = tested on: CAKI-1 renal
[7] = tested on: CCRF-CEM leukemia
[8] = tested on: COLO 205 colon
[9] = tested on: DU-145 prostate
[10] = tested on: EKVX NSCLC
[11] = tested on: HCC-2998 colon
[12] = tested on: HCT-116 colon
[13] = tested on: HCT-15 colon
[14] = tested on: HL-60(TB) leukemia
[15] = tested on: HOP-62 NSCLC
[16] = tested on: HOP-92 NSCLC
[17] = tested on: HS 578T breast
[18] = tested on: HT29 colon
[19] = tested on: IGROV1 ovarian
[20] = tested on: K-562 leukemia
[21] = tested on: KM12 colon
[22] = tested on: LOX IMVI melanoma
[23] = tested on: M14 melanoma
[24] = tested on: MALME-3M melanoma
[25] = tested on: MCF7 breast
[26] = tested on: MDA-MB-231 breast
[27] = tested on: MDA-MB-435
[28] = tested on: MDA-N
[29] = tested on: MOLT-4 leukemia
[30] = tested on: NCI-H226 lung
[31] = tested on: NCI-H23 lung
[32] = tested on: NCI-H460 lung
[33] = tested on: NCI-H522 lung
[34] = tested on: NCI/ADR-RES ovarian
[35] = tested on: OVCAR-3 ovarian
[36] = tested on: OVCAR-4 ovarian
[37] = tested on: OVCAR-5 ovarian
[38] = tested on: OVCAR-8 ovarian
[39] = tested on: PC-3 prostate
[40] = tested on: RPMI-8226 leukemia
[41] = tested on: RXF 393 renal
[42] = tested on: SF-268 CNS
[43] = tested on: SF-295 CNS
[44] = tested on: SF-539 CNS
[45] = tested on: SK-MEL-2 melanoma
[46] = tested on: SK-MEL-28 melanoma
[47] = tested on: SK-MEL-5 melanoma
[48] = tested on: SK-OV-3 ovarian
[49] = tested on: SN12C renal
[50] = tested on: SNB-19 CNS
[51] = tested on: SNB-75 CNS
[52] = tested on: SR leukemia
[53] = tested on: SW-620 colon
[54] = tested on: T-47D breast
[55] = tested on: TK-10 renal
[56] = tested on: U251 CNS
[57] = tested on: UACC-257 melanoma
[58] = tested on: UACC-62 melanoma
[59] = tested on: UO-31 renal
[60] = tested on: DLD-1 colon
[61] = tested on: DMS 273 small cell lung
[62] = tested on: HOP-18 NSCLC
[63] = tested on: KM20L2 colon
[64] = tested on: LXFL 529 NSCLC

Cn1c(=O)c2[nH]c(CCCCc3nc4ccccc4[nH]3)nc2n(C)c1=O
95.8 µM: TGI [16]
> 100 µM: TGI [1] | TGI [2] | TGI [3] | TGI [4] | TGI [5] | TGI [6] | TGI [7] | TGI [8] | TGI [9] | TGI [10] | TGI [11] | TGI [12] | TGI [13] | TGI [14] | TGI [15] | TGI [17] | TGI [18] | TGI [19] | TGI [20] | TGI [21] | TGI [22] | TGI [23] | TGI [24] | TGI [25] | TGI [26] | TGI [27] | TGI [28] | TGI [29] | TGI [30] | TGI [31] | TGI [32] | TGI [33] | TGI [34] | TGI [35] | TGI [36] | TGI [37] | TGI [38] | TGI [39] | TGI [40] | TGI [41] | TGI [42] | TGI [43] | TGI [44] | TGI [45] | TGI [46] | TGI [47] | TGI [48] | TGI [49] | TGI [50] | TGI [51] | TGI [52] | TGI [53] | TGI [54] | TGI [55] | TGI [56] | TGI [57] | TGI [58] | TGI [59]

C1C[OH+]CCNCC[OH+]CC[OH+]CCN1.O.[Cl-].[Pt+4]
> 10 µM: TGI [16] | TGI [23]
inactive: GI50 [1] > 100 µM | GI50 [2] > 100 µM | GI50 [3] > 100 µM | GI50 [4] > 100 µM | GI50 [6] > 100 µM | GI50 [7] > 100 µM | GI50 [8] > 100 µM | GI50 [60] > 100 µM | GI50 [61] > 100 µM | GI50 [11] > 100 µM | GI50 [12] > 100 µM | GI50 [13] > 100 µM | GI50 [14] > 100 µM | GI50 [62] > 100 µM | GI50 [15] > 100 µM | GI50 [16] > 10 µM | GI50 [18] > 100 µM | GI50 [19] > 100 µM | GI50 [20] > 100 µM | GI50 [21] > 100 µM | GI50 [63] > 100 µM | GI50 [22] > 100 µM | GI50 [64] > 100 µM | GI50 [23] > 10 µM | GI50 [24] > 100 µM | GI50 [29] > 100 µM | GI50 [30] > 100 µM | GI50 [32] > 100 µM | GI50 [35] > 100 µM | GI50 [36] > 100 µM | GI50 [38] > 100 µM | GI50 [40] > 100 µM | GI50 [42] > 100 µM | GI50 [43] > 100 µM | GI50 [44] > 100 µM | GI50 [45] > 100 µM | GI50 [46] > 100 µM | GI50 [47] > 100 µM | GI50 [48] > 100 µM | GI50 [49] > 100 µM | GI50 [50] > 100 µM | GI50 [51] > 100 µM | GI50 [53] > 100 µM | GI50 [55] > 100 µM | GI50 [56] > 100 µM | GI50 [57] > 100 µM | GI50 [58] > 100 µM | GI50 [59] > 100 µM
> 100 µM: TGI [1] | TGI [2] | TGI [3] | TGI [4] | TGI [6] | TGI [7] | TGI [8] | TGI [60] | TGI [61] | TGI [11] | TGI [12] | TGI [13] | TGI [14] | TGI [62] | TGI [15] | TGI [18] | TGI [19] | TGI [20] | TGI [21] | TGI [63] | TGI [22] | TGI [64] | TGI [24] | TGI [29] | TGI [30] | TGI [32] | TGI [35] | TGI [36] | TGI [38] | TGI [40] | TGI [42] | TGI [43] | TGI [44] | TGI [45] | TGI [46] | TGI [47] | TGI [48] | TGI [49] | TGI [50] | TGI [51] | TGI [53] | TGI [55] | TGI [56] | TGI [57] | TGI [58] | TGI [59]
